The experiment deals with PLpro of SARS-CoV-2 (Severe acute respiratory syndrome coronavirus 2, UniProt P0DTD1). The experiment is described as follows: Enzyme activity test in vitro: inhibition of PLpro at fixed concentration 50 μM (RLRGG-AMC substrate). Conditions: read-out: Inhibition rate at 50 μM (%). The class given is biochemical.

As a reminder, the inhibition is how much of the control response was suppressed. `O=C(c1cccc(Nc2c(-c3ccc(Cl)cc3)nc3cnccn23)c1)N1CCOCC1` [P22429, [3-[[2-(4-chlorophenyl)imidazo[1,2-a]pyrazin-3-yl]amino]phenyl]-morpholin-4-ylmethanone]: the inhibition at 50 µM is 24.7%.
Regarding `Cc1ccc(-c2nc3cnccn3c2Nc2ccc(C(=O)NC3CCCCC3)cc2)cc1` [P22434, N-cyclohexyl-4-[[2-(4-methylphenyl)imidazo[1,2-a]pyrazin-3-yl]amino]benzamide], the inhibition at 50 µM worked out at 41.1%.
For the molecule `CNC(=O)c1ccc(Nc2c(-c3ccc(C)cc3)nc3cnccn23)cc1` [P19482, N-methyl-4-[[2-(4-methylphenyl)imidazo [1,2-a]pyrazin-3-yl]amino]benzamide], the inhibition at 50 µM amounted to 34.1%.
With `CNC(=O)c1ccc(Nc2c(-c3ccc(OC)c(OC)c3)nc3cnccn23)cc1` [P19464, 4-[[2-(3,4-dimethoxy-phenyl)imidazo[1,2-a]pyrazin-3-yl]amino]-N-methyl-benzamide], the inhibition at 50 µM was determined as 42.2%.
Regarding `CCc1cccc(C)c1Nc1c(-c2ccc(C(=O)NC)cc2)nc2cnccn12` [P22501, 4-[3-(2-ethyl-6-methyl-anilino)imidazo [1,2-a]pyrazin-2-yl]-N-methyl-benzamide], the inhibition at 50 µM amounted to 28.7%.
Regarding `CSc1ccc(-c2nc3cnccn3c2Nc2cccc(C(=O)NC3CCCCC3)c2)cc1` [P22448, N-cyclohexyl-3-[[2-(4-methylsulfanyl-phenyl)imidazo[1,2-a]pyrazin-3-yl]amino] benzamide], the inhibition at 50 µM stood at 26.9%.
The figure for `COC(=O)c1cccc(Nc2c(-c3ccc(Cl)cc3)nc3cnccn23)c1` [P37337, methyl 3-[[2-(4-chlorophenyl)imidazo[1,2-a]pyrazin-3-yl]amino] benzoate] is 23%; for `COC(=O)c1cccc(Nc2c(-c3ccc(O)c(OC)c3)nc3cnccn23)c1` [P19505, methyl 3-[[2-(4-hydroxy-3-methoxyphenyl)imidazo [1,2-a]pyrazin-3-yl]amino]benzoate] it is 44.7%; for `COc1ccc(-c2nc3cnccn3c2Nc2ccc(C(=O)NC(C)C)cc2)cc1` [P22432, 4-[[2-(4-methoxy-phenyl)imidazo[1,2-a]pyrazin-3-yl]amino]-N-propan-2-ylbenzamide] it is 42.2%.
Regarding `CCOC(=O)c1ccc(Nc2c(-c3ccc(O)cc3)nc3cnccn23)cc1` [P19504, ethyl 4-[[2-(4-hydroxy-phenyl)imidazo[1,2-a]pyrazin-3-yl]amino] benzoate], the inhibition at 50 µM was found to be 32.6%.
Turning to `COc1ccc(-c2nc3cnccn3c2Nc2ccc3c(c2)OCO3)cc1OC` [P19444, N-(1,3-benzodioxol-5-yl)-2-(3,4-dimethoxy-phenyl)imidazo [1,2-a]pyrazin-3-amine], the inhibition at 50 µM came out at 42.2%.
On to `CSc1ccc(-c2nc3cnccn3c2Nc2ccc(C(=O)NCc3ccco3)cc2)cc1` [P22465, N-(furan-2-ylmethyl)-4-[[2-(4-methyl-sulfanylphenyl)imidazo [1,2-a]pyrazin-3-yl]amino]benzamide], for which the inhibition at 50 µM is 29.6%.
The figure for `COC(=O)c1ccc(-c2nc3cnccn3c2Nc2ccc(C(C)C)cc2)cc1` [P37297, methyl 4-[3-(4-propan-2-ylanilino)imidazo[1,2-a]pyrazin-2-yl] benzoate] is 22.3%; for `CCOC(=O)c1ccc(Nc2c(-c3ccc(OC)cc3)nc3cnccn23)cc1` [P22531, ethyl 4-[[2-(4-methoxy-phenyl)imidazo[1,2-a]pyrazin-3-yl]amino] benzoate] it is 31.9%; for `O=C(O)c1cccc(Nc2c(-c3ccc(N4CCOCC4)cc3)nc3cnccn23)c1` [P24833, 3-[[2-(4-morpholin-4-ylphenyl)imidazo [1,2-a]pyrazin-3-yl]amino]benzoic acid] it is 35.1%.
For `COC(=O)c1ccc(-c2nc3cnccn3c2Nc2ccc(OC)c(OC)c2)cc1` [P22491, methyl 4-[3-(3,4-dimethoxy-anilino)imidazo[1,2-a]pyrazin-2-yl] benzoate], the inhibition at 50 µM worked out at 22.4%.

For the origin of these results see patent US20250032485A1, “APPLICATION OF IMIDAZO [1,2-A] PYRAZINE COMPOUNDS OR THEIR PHARMACEUTICALLY ACCEPTABLE SALTS IN THE PREPARATION OF ANTI-CORONAVIRUS DRUGS” (GUANGZHOU MEDICAL UNIVERSITY, priority 2023, published 2025).
